Test results published in ChEMBL document CHEMBL4316584, “All that glitters is not gold: Panning cytotoxic natural products and derivatives with a fused tricyclic backbone by the estimation of their leadlikeness for cancer treatment” (Eur J Med Chem, 2019).

How the values were obtained:
Format in all cases: functional, cell-based
HCT-116 = experiment: Cytotoxicity against human HCT116 cells after 48 hrs by MTT assay; conditions: HCT-116, 48 h
A549 = experiment: Cytotoxicity against human A549 cells after 48 hrs by MTT assay; conditions: Homo sapiens, A549, 48 h
MCF7 = experiment: Cytotoxicity against human MCF7 cells after 48 hrs by MTT assay; conditions: MCF7, 48 h

Structure (SMILES)	IC50 (HCT-116)	IC50 (A549)	also measured
CC(=O)O[C@@H]1[C@H](C)CC(O)=C2C(=O)c3c(ccc(-c4ccc(O)c5c4O[C@@]4(CO)C(=C(O)C[C@@H](C)[C@H]4OC(C)=O)C5=O)c3O)O[C@@]21CO	7.12 µM		
CC(C)(O)c1ccc2c(c1)C(=O)C[C@H]1C(C)(C)CCC[C@]21C		14 µM	
Cc1cnc2c(c1)C(=O)C1N=CC=C(/C=C/C#N)C1C2=O (centres undefined)		7.88 µM	
CO[C@H]1[C@H](O)C[C@@H](O[C@@H]2C[C@H](Oc3cc4cc5c(c(O)c4c(O)c3C)C(=O)[C@@H](O[C@H]3C[C@H](O[C@H]4C[C@H](O[C@H]6C[C@@](C)(O)[C@@H](OC(C)=O)[C@H](C)O6)[C@H](O)[C@@H](C)O4)[C@H](O)[C@@H](C)O3)[C@H]([C@H](OC)C(=O)[C@@H](O)[C@@H](C)O)C5)O[C@H](C)[C@H]2OC(C)=O)O[C@@H]1C	0.3 µM		
Nc1ccc(C(=O)/C=C/c2cc3c([nH]c4ccccc43)c(-c3ccc(C(F)(F)F)cc3)n2)cc1		2.95 µM	
CC(=O)N1N=C(c2ccco2)CC1c1cc2c([nH]c3ccccc32)c(-c2cccc(Cl)c2)n1 (centres undefined)		15.4 µM	
COC(=O)c1ccc2c(=O)c3c(OC)cc(CCO)cc3oc2c1O		4.8 µM	
CNC1=CC(=O)c2c(O)c3c(c(O)c2C1=O)C[C@](C)(O)[C@H](O)[C@H]3O			IC50 (MCF7): 3.58 µM
CCCCSC1=C(SCCCC)C(=O)c2c(O)c3c(c(O)c2C1=O)C[C@](C)(O)[C@H](O)[C@H]3O			IC50 (MCF7): 2.45 µM
Cc1cnc2c(c1)C(=O)C1N=CC=CC1C2=O (centres undefined)		3.72 µM	
COC(=O)c1ccc2c(=O)c3c(O)cc(CCO)cc3oc2c1O			IC50 (MCF7): 2.7 µM
CC(=O)OC[C@]12Oc3ccc(-c4ccc(O)c5c4O[C@@]4(CO)C(=C(O)C[C@@H](C)[C@H]4OC(C)=O)C5=O)c(O)c3C(=O)C1=C(O)C[C@@H](C)[C@H]2OC(C)=O	6.92 µM		
COc1cc(-c2nc(/C=C/C(=O)c3ccco3)cc3c2[nH]c2ccccc23)cc(OC)c1OC		3.8 µM	
C[C@]1(O)Cc2c(O)c3c(c(O)c2[C@H](O)[C@H]1O)C(=O)C(SCCO)=C(SCCO)C3=O			IC50 (MCF7): 14.4 µM
CN1CCN(CC2CCc3c(n(C)c4ccccc34)C2=O)CC1 (centres undefined)	14 µM		
Nc1ccc(C(=O)/C=C/c2cc3c([nH]c4ccccc43)c(-c3ccc(F)c(F)c3)n2)cc1			IC50 (MCF7): 10.5 µM
CC1CCN(CC2CCc3c(n(C)c4ccccc34)C2=O)CC1 (centres undefined)		0.71 µM	
COc1cc(-c2nc(C3CC(c4ccco4)=NN3C(C)=O)cc3c2[nH]c2ccccc23)cc(OC)c1OC (centres undefined)		3.2 µM	
CC(C)=CCc1c(O)cc(O)c2c(=O)c3c(O)cccc3oc12	10.8 µM		
Cn1c2c(c3ccccc31)CCC(Cn1ccnc1)C2=O (centres undefined)	3.12 µM		
O=C(/C=C/c1cc2c([nH]c3ccccc32)c(-c2ccc(F)c(F)c2)n1)c1ccco1		9.54 µM	
CCCCCCSC1=C(SCCCCCC)C(=O)c2c(O)c3c(c(O)c2C1=O)C[C@@H](O)[C@@](C)(O)C3	2.94 µM		

Structure (SMILES)	IC50 (HCT-116)	IC50 (A549)	also measured
COC(=O)c1cccc2oc3cc(CCO)cc(O)c3c(=O)c12			IC50 (MCF7): 4.6 µM
CCCCSC1=C(SCCCC)C(=O)c2c(O)c3c(c(O)c2C1=O)C[C@@H](O)[C@@](C)(O)C3	2.75 µM		
CC1=CC2C(=O)c3nccc(Cl)c3C(=O)C2N=C1 (centres undefined)		13.7 µM	
CN(Cc1ccccc1)CC1CCc2c(n(C)c3ccccc23)C1=O (centres undefined)		14.1 µM	
C[C@]1(O)Cc2c(O)c3c(c(O)c2[C@H](O)[C@H]1O)C(=O)C=C(N1CCCCC1)C3=O			IC50 (MCF7): 3.14 µM
Cc1cc(O)c2c(c1)C(=O)c1cc(OCCN(C)C)cc(O)c1C2=O			IC50 (MCF7): 4.5 µM
COc1cc(C2=NN(C(C)=O)C(c3cc4c([nH]c5ccccc54)c(-c4ccc(F)c(F)c4)n3)C2)cc(OC)c1OC (centres undefined)		11 µM	
COc1ccc(CNC2=CC(=O)c3c(O)c4c(c(O)c3C2=O)C[C@](C)(O)[C@H](O)[C@H]4O)cc1			IC50 (MCF7): 9.17 µM
COc1ccnc2c1C(=O)C1N=CC=C(c3ccccc3)C1C2=O (centres undefined)		10.6 µM	
C[C@]1(O)Cc2c(O)c3c(c(O)c2C[C@H]1O)C(=O)C=C(NCc1ccc(F)cc1)C3=O	7.09 µM		
O=C(/C=C/c1cc2c([nH]c3ccccc32)c(-c2cccc(Cl)c2)n1)c1ccco1		18.6 µM	
O=c1c2ccc(O)cc2oc2cc(O)cc(O)c12	19.8 µM		
O=c1c2ccc(O)c(O)c2oc2c(O)c(O)ccc12	18.5 µM		
CC(CO)c1cc2c(c(O)c1O)C[C@@]1(O)CCCC(C)(C)[C@@H]1CC2 (some centres undefined)			IC50 (MCF7): 16 µM
CC(CO)c1cc(O)c2c(c1)[C@@H](O)C[C@H]1C(C)(C)CCC[C@]1(O)C2 (some centres undefined)			IC50 (MCF7): 15.8 µM
CC(CO)c1cc(O)c2c(c1)CC[C@H]1C(C)(C)CCC[C@]1(O)C2 (some centres undefined)			IC50 (MCF7): 10.8 µM
COc1cc(O)c2c(c1)C(=O)C1=C(C[C@@H](O)[C@@](C)(O)[C@@H]1O)C2=O [ALTERSOLANOL C]	3.03 µM		
COC1=CC(=O)c2c(O)c3c(c(O)c2C1=O)C[C@](C)(O)[C@H](O)[C@H]3O [BOSTRYCIN]	4.78 µM		
CC(=O)O[C@@H]1[C@H](C)CC(O)=C2C(=O)c3c(ccc(-c4ccc5c(c4O)C(=O)C4=C(O)C[C@@H](C)[C@@H](OC(C)=O)[C@@]4(CO)O5)c3O)O[C@@]21CO [DICERANDROL A]	2.64 µM		
CC(=O)OC[C@]12Oc3ccc(-c4ccc5c(c4O)C(=O)C4=C(O)C[C@@H](C)[C@@H](OC(C)=O)[C@@]4(CO)O5)c(O)c3C(=O)C1=C(O)C[C@@H](C)[C@H]2OC(C)=O [DICERANDROL B]	3.94 µM		
O=C1c2c(O)ccc(O)c2C(=O)c2c(NCCNCCO)ccc(NCCNCCO)c21 [MITOXANTRONE]		7.25 µM	
COC1=CC(=O)c2c(cc3c(c2O)C[C@@H](O)[C@@](C)(O)C3)C1=O [NIGROSPORIN B]	4.7 µM		
